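Step 1: Grow cells in 96-well plates. Step 2: Expose to compound for 48 hours at 5 concentrations. Step 3: Interpolate endpoints linearly; if unreached, use highest concentration. GI50 = concentration required for 50% inhibition of growth. The concentration for full growth arrest is given as TGI.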
Assays:
Test in all cases: NCI tumour cell line growth inhibition, 48 h
MDA-N = system: MDA-N
RXF-631 renal = system: RXF-631 renal
SNB-78 CNS = system: SNB-78 CNS
LXFL 529 NSCLC = system: LXFL 529 NSCLC
M19-MEL melanoma = system: M19-MEL melanoma
DMS 273 small cell lung = system: DMS 273 small cell lung
HOP-18 NSCLC = system: HOP-18 NSCLC
XF 498 CNS = system: XF 498 CNS
KM20L2 colon = system: KM20L2 colon

## C=C(Br)C(C)(Br)CCC(Br)C(C)(C)Cl (configuration not stated)
MDA-N
  TGI: 39.8 µM

## COC1=CC(=O)C(C2CC(=O)c3c(O)cc(O)cc3O2)=CC1=O (configuration not stated)
MDA-N
  TGI: 29.7 µM

## NC1(C(=O)OCc2ccccc2)CCCC1
MDA-N
  TGI: 49.6 µM

## O=S1(=O)OCCOS(=O)(=O)C1Br
RXF-631 renal
  TGI: > 100 µM
SNB-78 CNS
  TGI: > 100 µM
LXFL 529 NSCLC
  TGI: > 100 µM
M19-MEL melanoma
  TGI: > 100 µM
DMS 273 small cell lung
  TGI: > 100 µM

## CC(=O)/C(=C\c1cccc([N+](=O)[O-])c1)C(=O)Nc1ccccc1C
SNB-78 CNS
  TGI: > 100 µM
HOP-18 NSCLC
  TGI: > 100 µM
LXFL 529 NSCLC
  TGI: > 100 µM
XF 498 CNS
  TGI: > 100 µM
KM20L2 colon
  TGI: > 100 µM
M19-MEL melanoma
  TGI: > 100 µM

## CCOC(=O)NC(=O)c1cn(CCCO)c(=O)[nH]c1=O
RXF-631 renal
  TGI: > 100 µM
SNB-78 CNS
  TGI: > 100 µM
HOP-18 NSCLC
  TGI: > 100 µM
XF 498 CNS
  TGI: > 100 µM
KM20L2 colon
  TGI: > 100 µM
M19-MEL melanoma
  TGI: > 100 µM
DMS 273 small cell lung
  TGI: > 100 µM

## CCCCCCCCC/C=C1\CCC(CN2CCOCC2)C1=O (configuration not stated)
RXF-631 renal
  TGI: 18.2 µM
SNB-78 CNS
  TGI: 15.3 µM
HOP-18 NSCLC
  TGI: 10.7 µM
MDA-N
  TGI: 12.7 µM
LXFL 529 NSCLC
  TGI: 2.95 µM
KM20L2 colon
  TGI: 20.5 µM
M19-MEL melanoma
  TGI: 10.4 µM
DMS 273 small cell lung
  TGI: 5.08 µM

## CCOC(=O)c1cc2nc3ccccc3c(=O)n2c2ccccc12
MDA-N
  TGI: > 10 µM

## [Cl-].[La+3].[O-]/N=C(\c1ccccc1)c1ccccn1.[O-]/N=C(\c1ccccc1)c1ccccn1.[O-]/N=C(\c1ccccc1)c1ccccn1
SNB-78 CNS
  GI50: > 90.8 µM
  TGI: > 100 µM
HOP-18 NSCLC
  GI50: 31.3 µM
  TGI: > 100 µM
LXFL 529 NSCLC
  GI50: 60.3 µM
  TGI: > 100 µM
KM20L2 colon
  GI50: 46.2 µM
  TGI: > 100 µM
M19-MEL melanoma
  GI50: 22 µM
  TGI: 50 µM
DMS 273 small cell lung
  GI50: 31.3 µM
  TGI: > 100 µM

## Cc1cc(O)c(/C=N/C(=S)NCc2ccccc2)c(=O)o1
MDA-N
  TGI: > 100 µM

## Clc1ccc(C(c2ccc(Cl)cc2)c2ccccn2)cc1
SNB-78 CNS
  TGI: > 100 µM
HOP-18 NSCLC
  TGI: 46.6 µM
LXFL 529 NSCLC
  TGI: 35.3 µM
XF 498 CNS
  TGI: 34.8 µM
KM20L2 colon
  TGI: 29.8 µM
M19-MEL melanoma
  TGI: > 100 µM

## C#CC1(O)CCC2C3CCc4cc(Oc5nc(F)nc(-c6c7ccccc7c7sc8ccccc8n67)n5)ccc4C3CC[C@@]21C (some centres not stated)
LXFL 529 NSCLC
  TGI: > 100 µM
XF 498 CNS
  TGI: > 100 µM
KM20L2 colon
  TGI: > 100 µM
M19-MEL melanoma
  TGI: > 100 µM
DMS 273 small cell lung
  TGI: > 100 µM

## Cc1ccc(NC(=O)c2cc3cc(N=Nc4ccccc4C(=O)O)ccc3oc2=O)cc1
HOP-18 NSCLC
  TGI: > 100 µM
XF 498 CNS
  TGI: 85.8 µM
KM20L2 colon
  TGI: > 100 µM
DMS 273 small cell lung
  TGI: > 100 µM

## COc1cc(NCc2ccc3oc(=O)c(-c4ccccc4)nc3c2)cc(OC)c1OC
MDA-N
  TGI: > 10 µM

## CCCCCCN(CCCCCC)C(=O)Cc1c2n(c3ccccc13)Cc1ccccc1-2
SNB-78 CNS
  TGI: > 100 µM
HOP-18 NSCLC
  TGI: > 100 µM
LXFL 529 NSCLC
  TGI: > 100 µM
KM20L2 colon
  TGI: > 100 µM
M19-MEL melanoma
  TGI: > 100 µM
DMS 273 small cell lung
  TGI: > 100 µM

## CN(C)c1ccc(/C=C(\NC(=O)c2ccccc2)c2nc3ncncc3[nH]2)cc1
RXF-631 renal
  TGI: > 100 µM
SNB-78 CNS
  TGI: > 100 µM
LXFL 529 NSCLC
  TGI: > 100 µM
XF 498 CNS
  TGI: > 100 µM
KM20L2 colon
  TGI: > 100 µM
M19-MEL melanoma
  TGI: > 100 µM

## CC(C)C(C)/C=C\C(C)C1CCC2C3=CC=C4CC(O)CCC4(C)C3CCC21C (configuration not stated)
MDA-N
  TGI: > 70.5 µM

## COc1cc(C2c3cc4c(cc3OC(C)(O)C2C)OCO4)cc(OC)c1OC (configuration not stated)
MDA-N
  TGI: 0.258 µM

## N#CC(C#N)=CNC(N)=S
MDA-N
  TGI: > 100 µM

## COC(OC)C(C)CC(=O)N(C)C (configuration not stated)
SNB-78 CNS
  TGI: > 100 µM
LXFL 529 NSCLC
  TGI: > 100 µM
XF 498 CNS
  TGI: > 100 µM
KM20L2 colon
  TGI: > 100 µM
M19-MEL melanoma
  TGI: > 100 µM
DMS 273 small cell lung
  TGI: > 100 µM

## C[Si](C)(C)C1(Sc2ccccc2)SCCCS1
SNB-78 CNS
  TGI: > 100 µM
LXFL 529 NSCLC
  TGI: > 100 µM
XF 498 CNS
  TGI: > 100 µM
M19-MEL melanoma
  TGI: > 100 µM
DMS 273 small cell lung
  TGI: > 100 µM

## COC(=O)C1=C(C)NC(C)=C(C(=O)OCCCN2CCC(c3ccccc3)(c3ccccc3)CC2)C1c1cccc([N+](=O)[O-])c1 (configuration not stated)
MDA-N
  TGI: 3.89 µM

## OC(c1nc2ccccc2[nH]1)C(O)C(O)C(O)c1nc2ccccc2[nH]1 (configuration not stated)
MDA-N
  TGI: > 100 µM

## O=C(/C=C\c1ccc(Cl)c(Cl)c1)c1ccc(Cl)cc1Cl
RXF-631 renal
  TGI: > 100 µM
LXFL 529 NSCLC
  TGI: 21.2 µM
KM20L2 colon
  TGI: 28 µM
M19-MEL melanoma
  TGI: 81.1 µM
DMS 273 small cell lung
  TGI: 34.8 µM
